Results published in US8987200B2, “Polycationic calcium modulator peptides for the treatment of hyperparathyroidism and hypercalcemic disorders” (KAI Pharmaceuticals, Inc., priority 2006, dated 2015).
No end group written: not given here.

Legend:
[1] = rat, plasma
[2] = system: anesthetized rats; assay: 3 hour infusion study of KAI-1633 in anesthetized rats, with steady state plasma concentration by ELISA (Example 14); format: in vivo, rat; conditions: 9 mg/kg iv infusion for 3 hours
Description: The study was designed to determine the contribution of the disulfide bond and/or cysteine residue on the calcium modulator peptide to the reductions in total calcium and plasma PTH.
Control animals (n=4) were infused with saline.

[3] = In vitro activity of free-thiol calcium modulating peptide compared with KAI-1455; conditions: tested in vitro, relative to KAI-1455

Question: Which half-life [1] does the source give for `CC[C@H](C)[C@H](NC(=O)[C@@H]1CCCN1C(=O)[C@H](C)NC(=O)[C@H](CC(=O)O)NC(=O)[C@H](Cc1c[nH]cn1)NC(=O)[C@@H](N)CSSC[C@H](N)C(=O)N[C@@H](Cc1ccc(O)cc1)C(=O)NCC(=O)N[C@@H](CCCNC(=N)N)C(=O)N[C@@H](CCCCN)C(=O)N[C@@H](CCCCN)C(=O)N[C@@H](CCCNC(=N)N)C(=O)N[C@@H](CCCNC(=N)N)C(=O)N[C@@H](CCC(N)=O)C(=O)N[C@@H](CCCNC(=N)N)C(=O)N[C@@H](CCCNC(=N)N)C(=O)N[C@@H](CCCNC(=N)N)C(=O)O)C(=O)NCC(=O)N[C@@H](Cc1ccc(O)cc1)C(=O)N[C@@H](CC(=O)O)C(=O)O` [KP-9706] here?
Answer: The half-life was ~5 min.

Question: With EAVSLKPTGGYGRKKRRQRRR-NH2 [KAI-1633] as the molecule, how does the “Plasma PTH levels” value [2] read?
Answer: The value was “did not show a reduction”.

Question: What about the Total calcium [2] of the same molecule?
Answer: The Total calcium was “did not show a reduction”.

Question: Which half-life [1] does the source give for `CC(C)C[C@H](NC(=O)[C@H](CO)NC(=O)CNC(=O)[C@H](CC(C)C)NC(=O)[C@H](CCC(=O)O)NC(=O)[C@H](Cc1ccc(O)cc1)NC(=O)[C@H](CO)NC(=O)[C@H](CC(N)=O)NC(=O)[C@H](Cc1ccccc1)NC(=O)[C@H](CO)NC(=O)[C@@H](N)CSSC[C@H](N)C(=O)N[C@@H](Cc1ccc(O)cc1)C(=O)NCC(=O)N[C@@H](CCCNC(=N)N)C(=O)N[C@@H](CCCCN)C(=O)N[C@@H](CCCCN)C(=O)N[C@@H](CCCNC(=N)N)C(=O)N[C@@H](CCCNC(=N)N)C(=O)N[C@@H](CCC(N)=O)C(=O)N[C@@H](CCCNC(=N)N)C(=O)N[C@@H](CCCNC(=N)N)C(=O)N[C@@H](CCCNC(=N)N)C(=O)O)C(=O)O` [KP-9803] here?
Answer: Its half-life is ~10 min.

Question: Which Activity in vitro [3] does the source give for “Ac-CYGRKKRRQRRR-NH2 [SEQ ID NO:5, capped TAT-derived peptide having an N-terminal cysteine residue containing a free thiol]” here?
Answer: The Activity in vitro was “comparable to KAI-1455”.
